Like-named read-outs stand apart in the source and are kept apart here.
How the values were obtained:
[1] = system: patients with HCC and intrahepatic cholangiocarcinoma; design: method as in doi:10.1200/JCO.2019.37.15_suppl.4095, doi:10.1200/JCO.2021.39.15_suppl.4090; conditions: cited from earlier work
[2] = system: patients with HCC; design: method as in PMID 31575541; conditions: cited from earlier work
[3] = Pharmacokinetics of spartalizumab in combination arm; format: in vivo, human; conditions: for AUC0-504h / AUClast / Cmax / Tmax: Cycle 1 day 1; for AUC0-504h / AUClast / Cmax: geometric mean (CV%); for Tmax: median [min, max]
Method: (§1) Pharmacokinetic endpoints included plasma concentrations and PK parameters of FGF401 and spartalizumab. Pharmacokinetic parameters were determined with noncompartmental method(s) using Phoenix WinNonlin version 6.4 or above (Pharsight Corporation, Mountain View, Califormia, USA). Immunogenicity of spartalizumab was assessed through presence and/or concentration of anti-drug (spartalizumab) antibodies (ADA). Food effect on FGF401 exposure was evaluated through plasma concentration of FGF401 and relevant PK parameters when dosing under fed condition. Safety of the food effect was assessed through incidence and severity of AEs and serious AEs (SAEs), including changes in laboratory values, vital signs, and ECGs when dosing under fed condition.
The PK analyses and summary statistics were based on pharmacokinetic analysis set. Individual as well as mean concentration-time profiles were constructed using concentration data for spartalizumab and FGF401. Descriptive statistics for PK parameters included mean, standard deviation, coefficient of variation (CV%) mean, geometric mean, median, minimum, and maximum, with only the latter 3 for time to reach maximum concentration (Tmax) and additional 90% CI for accumulation ratio (Racc). Zero concentrations were not included in the geometric mean calculations. Missing concentrations or PK parameter values were not imputed.

[4] = Immunogenicity of spartalizumab (anti-drug antibodies); format: in vivo, human
Method: as §1

[5] = HCC patients with > 2 prior lines of therapy, qd schedule
[6] = spartalizumab 300 mg with FGF401 80 mg, n=6
[7] = spartalizumab 300 mg with FGF401 120 mg, n=6

For C=CC(=O)Nc1cc(N2CCN(CC)CC2)ccc1Nc1cc(N(C)C(=O)Nc2c(Cl)c(OC)cc(OC)c2Cl)ncn1 [H3B-6527], the “drug discontinuation due to AEs” value ([1]; HCC and intrahepatic cholangiocarcinoma, qd dosing) is given as 8.3%, the “Grade 3 TEAE” value ([1]; HCC and intrahepatic cholangiocarcinoma) is given as 12.5% and the OS [1, 5] is given as 10.6 months. The PFS [1, 5] was 4.1 months, the ORR ([1]; all PR, HCC patients with > 2 prior lines of therapy, qd schedule) was 16.7% and the clinical benefit rate ([1]; responders + durable SD > 17 weeks, HCC, qd schedule) was 45.8%.
For C=CC(=O)N[C@H]1CCOC[C@H]1Nc1ncc2cc(-c3c(Cl)c(OC)cc(OC)c3Cl)ccc2n1 [BLU-554, fisogatinib], the ORR ([2]; FGF19-negative patients) is given as 0%, the “median duration of response” value ([2]; FGF19-positive patients, 95% CI: 3.7-not reached) is given as 5.3 months and the ORR ([2]; FGF19-positive patients) is given as 17%. The “Treatment discontinuation due to AE” value [2] was 12%, the “Grade ≥ 3 TRAEs” value ([2]; most common transaminase elevation) was 43% and the “treatment related AE: diarrhea” value ([2]; qd) was 74%. For the same compound, the “treatment related AE: nausea” value ([2]; qd) was 42% and the “treatment related AE: vomiting” value ([2]; qd) was 35%.
With “spartalizumab: humanized immunoglobulin G4κ monoclonal antibody that binds PD-1 and blocks its interaction with PD-L1/PD-L2” the AUC0-504h ([3]; spartalizumab 300 mg with FGF401 80 mg, n=3) was 760 (1.9) day*µg/mL, the AUClast [3, 6] was 795 (34.5) day*µg/mL and the Cmax [3, 6] was 74.7 µg/mL. The Tmax [3, 6] was 1.58 [1.5-161] h, the AUC0-504h [3, 7] was 967 (13.9) day*µg/mL and the AUClast [3, 7] was 978 (15.8) day*µg/mL. For the same compound, the Cmax [3, 7] was 87.7 µg/mL, the Tmax [3, 7] was 1.5 [1.43-1.5] h and the “spartalizumab exposures in combination versus similar studies with 300 mg q3w” value ([3]; compared with refs 25, 30) was “might be comparable”. For the same compound, the “geo-mean AUClast” value ([3]; spartalizumab in combination with 80 mg FGF401) was 795 µg·days/mL, the “geo-mean AUClast” value ([3]; spartalizumab in combination with 120 mg FGF401) was 978 µg·days/mL and the “patients positive for treatment-induced ADA for spartalizumab” value ([4]; One of 12 patients, C2D1 and C3D1 predose) was 8.3%. The ADA titers ([4]; one ADA-positive patient) was “low to moderate” and the “influence of ADA on PK profiles” value ([4]; one ADA-positive patient) was “did not appear to influence the PK profiles”.

— publication PMC9161616, “A first-in-human phase 1/2 study of FGF401 and combination of FGF401 with spartalizumab in patients with hepatocellular carcinoma or biomarker-selected solid tumors” (Journal of Experimental & Clinical Cancer Research : CR, 2022)
